{
  "source": "BindingDB's records for doi:10.1016/s0960-894x(02)00471-7",
  "about": "(Universita' Di Firenze, 2002)",
  "target": "T1, Substance-K receptor (Homo sapiens, UniProt P21452)",
  "T1 sequence (P21452 whole entry)": "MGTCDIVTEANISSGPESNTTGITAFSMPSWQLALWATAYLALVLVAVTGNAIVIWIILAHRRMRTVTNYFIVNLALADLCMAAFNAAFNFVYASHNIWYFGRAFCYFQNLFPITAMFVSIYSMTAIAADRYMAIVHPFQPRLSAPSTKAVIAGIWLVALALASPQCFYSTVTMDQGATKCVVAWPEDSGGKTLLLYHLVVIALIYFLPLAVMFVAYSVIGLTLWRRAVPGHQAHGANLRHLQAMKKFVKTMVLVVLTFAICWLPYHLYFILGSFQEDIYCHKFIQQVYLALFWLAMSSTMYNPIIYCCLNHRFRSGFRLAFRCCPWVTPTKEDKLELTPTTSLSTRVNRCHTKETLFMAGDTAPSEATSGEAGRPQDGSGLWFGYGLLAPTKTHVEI",
  "assay": "ChEBML_209037",
  "text": "Displacement of [125I]NKA from human Tachykinin receptor 2 expressed in CHO cells",
  "data": [
    {"compound": "CCOC(=O)C1C(C)OC2OC(COCc3ccccc3)C(OCc3ccccc3)C(=O)C2[S+]1[O-]", "note": "(stereo unspecified) [7-Benzyloxy-6-benzyloxymethyl-8-hydroxy-3-methyl-1-oxo-6,7,8,8a-tetrahydro-1H,4aH-4,5-dioxa-1lambda*4*-thia-naphthalene-2-carboxylic acid ethyl ester]", "values": [
      {"measurement": "Ki", "value": 790, "unit": "nM"}
    ]}
  ]
}
